Data reported in publication PMC3025922 (BMC Biology, 2010).
pIC50: −log10 of the molar value. Where “and” joins values, the source holds several entries; their conditions need not be identical. Equal values may be shown once. Read-outs that look alike come from different tables or passages of the source.

Experiments:
[1] = test system: p21 protein levels in LNCaP-S14 cells; assay: Immunoblot quantification of p21, LNCaP-S14; format: cell-based, human
Procedure: (§1) Total cell lysate from cells treated with vehicle (DMSO) or compounds were obtained by incubating cells in lysis buffer (25 mM Tris-HCl pH 7.4, 150 mM NaCl, 0.5% Triton X-100, protease inhibitors) for 15 min at 4°C. The supernatant was collected by centrifugation and the amount of protein was determined with a Bio-Rad protein assay (Bio-Rad) using BSA as standard. Equal amounts of protein were subjected to SDS-PAGE (4%-20% gels, Invitrogen) and transferred to PVDF membranes. The membranes were blocked with TBST (50 mM Tris-HCl pH 7.5, 150 mM NaCl, 0.05% Tween-20) containing 5% non-fat dry milk or bovine serum albumin (BSA) for 1 h at room temperature, followed by incubation in primary antibodies 4°C overnight. Membranes were washed and incubated with secondary antibodies conjugated to HRP (Jackson ImmunoResearch Laboratories) for 1 h at room temperature. Signals were visualized using the ECL Western Blotting Substrate (Pierce Biotechnology, IL, USA) according to the manufacturer's instructions. Membranes were stripped using Restore™ Western Blot Stripping Buffer (Pierce Biotechnology). Films were scanned and quantification of the bands was performed using Image J software http://rsbweb.nih.gov/ij/.

[2] = test system: p21 protein levels in PC3 cells; assay: Immunoblot quantification of p21, PC3; format: cell-based, human
Procedure: as §1

[3] = test system: p27 protein levels in LNCaP-S14 cells; assay: Immunoblot quantification of p27, LNCaP-S14; format: cell-based, human
Procedure: as §1

DU145 cells [4] = assay: MTT cytotoxicity assay, DU145; conditions: Homo sapiens, read-out: IC50 (MTT cytotoxicity)
Procedure: (§3) LNCaP-S14 (10,000 cells), PC3, DU145 or IMR90 cells (5000 cells) were seeded in 96-well plates and treated with increasing concentrations of the respective SMIPs for 72 h. Cell viability was assessed using the MTT cell proliferation assay (ATCC®, Middlesex, UK) according to the manufacturer's protocol. IC50 was calculated using the BioDataFit 1.02 software http://www.changbioscience.com/stat/ec50.html.

LNCaP-WT cells = assay: MTT cytotoxicity assay, LNCaP-WT; conditions: Homo sapiens, read-out: IC50 (MTT cytotoxicity)
Procedure: as §3

[5] = test system: p27 protein levels in IMR90 cells; assay: Immunoblot quantification of p27, IMR90; format: cell-based, human
Procedure: as §1

[6] = test system: p21 protein levels in IMR90 cells; assay: Immunoblot quantification of p21, IMR90; format: cell-based, human
Procedure: as §1

[7] = test system: p27 protein levels in DU145 cells; assay: Immunoblot quantification of p27, DU145; format: cell-based, human
Procedure: as §1

[8] = test system: p27 protein levels in HeLa cells; assay: Immunoblot quantification of p27, HeLa; format: cell-based, human
Procedure: as §1

PC3 cells [9] = assay: MTT cytotoxicity assay, PC3; conditions: Homo sapiens, read-out: IC50 (MTT cytotoxicity)
Procedure: as §3

[10] = test system: p21 protein levels in LNCaP cells; assay: Immunoblot quantification of p21, LNCaP; format: cell-based, human
Procedure: as §1

[11] = test system: SKP2 levels in LNCaP-S14 cells; format: cell-based, human
[12] = test system: p27 protein levels in LNCaP cells; assay: Immunoblot quantification of p27, LNCaP; format: cell-based, human
Procedure: as §1

[13] = test system: p27 protein levels in PC3 cells; assay: Immunoblot quantification of p27, PC3; format: cell-based, human
Procedure: as §1

LNCaP-S14 cells [14] = assay: Cell cycle analysis by flow cytometry, LNCaP-S14; format: cell-based, human
Procedure: (§2) Cells were exposed to SMIPs (40 μM) for 24 h and 48 h. Cells were trypsinized, washed with PBS and suspended in 600 μL PBS. Cells were fixed by adding 1.4 mL cold absolute ethanol and kept at -20°C for at least 12 h. After washing once with PBS, the cells were resuspended in 250 μL PBS containing 2.5 μg RNAse A and incubated for 45 min at room temperature. Staining was done by adding 40 μg/mL of propidium iodine followed by incubation for 15 min at room temperature. DNA-bound fluorescence was read at 564 to 606 nm using FACSort and FACSCanto flow cytometers (BD Biosciences) at the Flow Cytometry Facility of the Sanford-Burnham Medical Research Institute. Distribution of cells in the different cell cycle phase was determined with ModFit LT 3.2.1 or FlowJo 8.6 software. Aggregates were excluded from the analysis manually using pulse shape or identified by automated modelling in ModFit LT.

[15] = test system: p27 stability in LNCaP-S14 cells; assay: Protein half-life by cycloheximide chase; format: cell-based, human; conditions: human
Procedure: LNCaP-S14 cells were treated with SMIPs (40 μM) for 18 h followed by the addition of 100 μg/mL cycloheximide (CHX). Cell extracts were obtained as described above at different times after CHX addition. Protein lysate was subjected to SDS-PAGE and immunoblotting for p27, p21 and SKP2. Tubulin was used as loading control. Protein half-lives were calculated using a web based calculator http://www.1728.com/halflife.htm.

LNCaP-S14 cells [16] = assay: Cell Death Detection ELISA (cytoplasmic histone-associated DNA fragments); format: cell-based, human
Procedure: Apoptosis was measured using the Cell Death Detection ELISA (Roche, Basel, Switzerland) following the manufacturer's instructions. Briefly, LNCaP-S14 cells (0.1 × 10^6) were seeded in 12-well plates and treated with SMIPs (40 μM) for 24 h. Cells were collected in medium, spun at 1000 rpm, and resuspended in 1 mL PBS at the specified time points (day 1 to day 3). The cell suspension was divided into two parts. The first half was used for determination of cytoplasmic histone-associated DNA fragments (ELISA), the second for protein determination to normalize the ELISA data to the amount of input protein.

LNCaP-S14 cells [17] = assay: MTT cytotoxicity assay, LNCaP-S14; conditions: Homo sapiens, 72 h, read-out: IC50 (MTT cytotoxicity)
Procedure: as §3

[18] = test system: p21 protein levels in DU145 cells; assay: Immunoblot quantification of p21, DU145; format: cell-based, human
Procedure: as §1

IMR90 cells = assay: Cell cycle analysis by flow cytometry, IMR90; format: cell-based, human
Procedure: as §2

PC3 cells [19] = assay: Cell cycle analysis by flow cytometry, PC3; format: cell-based, human
Procedure: as §2

DU145 cells [20] = assay: Cell cycle analysis by flow cytometry, DU145; format: cell-based, human
Procedure: as §2

LNCaP-S14 cells [21] = assay: Cell cycle distribution in LNCaP-S14 transfected with siRNAs for p27 and p21; format: cell-based, human
Procedure: as §2
LNCaP-S14 cells were seeded in 6 cm dishes or six-well-plates coated with poly-lysine the day before transfection. 10-20 nM of siRNA was transfected using DharmaFECT 3 (Thermo Scientific) according to the manufacturer's instructions. Briefly, siRNAs were dissolved in siRNA suspension buffer (Quiagen) at 20 μM, heated to 90°C for 1 min and incubated at 37°C for 1 h. siRNAs were added to the DharmaFECT 3 reagent diluted in Optimem media (1:100) and incubated for 20 min at room temperature. The mix was added to the cells for 24 h. Treatment with SMIPs (40 μM) or vehicle was carried on for another 24 h. Cells were obtained for FACS or lysed for immunoblotting analysis as described above. Untransfected cells as well as cells transfected with non-specific siRNA were used as controls. Silencer® Negative Control siRNA No.1 from Ambion (Applied Biosciences, CA, USA) was used as non-specific control siRNA. siRNA target sequences for p27 and p21 synthesized by IDT (Integrated DNA Technologies Inc, Iowa, USA) were as follows; p27 siRNA: […], and p21 siRNA: […] [56].

LNCaP cells = assay: Cell cycle analysis by flow cytometry, LNCaP; format: cell-based, human
Procedure: as §2

[22] = test system: p21 protein levels in HeLa cells; assay: Immunoblot quantification of p21, HeLa; format: cell-based, human
Procedure: as §1

[23] = biological target: PDGF receptor tyrosine kinase; conditions: vendor annotation of library compound (Biomol EI-215); cited from earlier work
[24] = test system: nuclear p27 in LNCaP-S14 cells; format: cell-based, human; conditions: primary screening

## CCCCc1ccc(NC(C)=O)c(C)c1 [SMIP004]
[1]
  p21 protein level (immunoblot, DMSO = 1.0): 2.8 ± 0.7
[2]
  p21 protein level (immunoblot, DMSO = 1.0): 1.7 ± 0.9
[3]
  p27 accumulation by immunoblotting: ~ threefold
  p27 protein level (immunoblot, DMSO = 1.0): 2.4 ± 0.7
DU145 cells [4]; DU-145, 72 h
  pIC50: < 4.10
DU145 cells [4]; DU-145, 96 h
  pIC50: < 4.10
LNCaP-WT cells; 72 h
  pIC50: 4.40
LNCaP-WT cells; 96 h
  pIC50: 5.62
[5]
  p27 protein level (immunoblot, DMSO = 1.0): 1.2 ± 0.3
[6]
  p21 protein level (immunoblot, DMSO = 1.0): 1.1 ± 0.0
[7]
  p27 protein level (immunoblot, DMSO = 1.0): 1.3 ± 0.1
[8]
  p27 protein level (immunoblot, DMSO = 1.0): 1.1 ± 0.2
PC3 cells [9]; PC-3, 72 h
  pIC50: < 4.10
PC3 cells [9]; PC-3, 96 h
  pIC50: < 4.10
[10]
  p21 protein level (immunoblot, DMSO = 1.0): 2.7 ± 0.1
[11]
  SKP2 levels (endogenous and exogenous) by immunoblotting: decrease
[12]
  p27 protein level (immunoblot, DMSO = 1.0): 2.1 ± 1.1
[13]
  p27 protein level (immunoblot, DMSO = 1.0): 1.1 ± 0.3
LNCaP-S14 cells [14]
  Cell cycle distribution G1: 72.3 and 75.8
  Cell cycle distribution G2: 7.1 and 6.4
  Cell cycle distribution S: 19.1 and 14.7
[15]
  p27 half-life: > 6 h
LNCaP-S14 cells [16]
  increase in the amount of mono and oligonucleosomes: three- to fivefold
LNCaP-S14 cells [17]
  pIC50: 5.96
[18]
  p21 protein level (immunoblot, DMSO = 1.0): 1.7 ± 0.5
IMR90 cells
  Cell cycle distribution G1: 68.6 and 77.6
  Cell cycle distribution G2: 13.2 and 10.9
  Cell cycle distribution S: 18.2 and 11.5
PC3 cells [19]
  Cell cycle distribution G1: 58.5 and 65.8
  Cell cycle distribution G2: 25.7 and 24.3
  Cell cycle distribution S: 14.3 and 8.5
DU145 cells [20]
  Cell cycle distribution G1: 75.7 and 79.7
  Cell cycle distribution G2: 8.0 and 10.4
  Cell cycle distribution S: 14.1 and 9.0
LNCaP-S14 cells [21]
  % G1: 66.92% and 62.86% and 69.79% and 66.56%
  % G2: 13.34% and 17.13% and 13.32% and 15.94%
  % S: 19.75% and 20.02% and 16.90% and 17.50%
LNCaP cells
  Cell cycle distribution G1: 81.7 and 87.3
  Cell cycle distribution G2: 9.8 and 6.6
[22]
  p21 protein level (immunoblot, DMSO = 1.0): 1.1 ± 0.1

## CC(C)(C)c1cc(C=C(C#N)C#N)cc(C(C)(C)C)c1O [1362L21]
[23]
  pIC50: 5.92
[24]; nuclear p27 in LNCaP-S14 cells
  Z score (aver): 6.21
[24]; S = strong, M = medium, W = weak by Z score
  Clasf: S (strong (Z score > 5))
